From patent US7473700B2, “1,2,4-triazole derivatives, processes for the preparation thereof, and pharmaceutical compositions containing the same” (CJ Corporation, priority 2002, dated 2009)

Key:
COX-1 = target: T1, COX-1 (Homo sapiens, UniProt P23219); test: Assay for the COX-1 inhibitory activity using U-937 (PGE2 inhibition); format: cell-based; conditions: 1 μM test compound; U-937 human lymphoma cells; PGE2 after arachidonic acid; read-out: Cyclooxygenase (COX) Inhibition (%) COX-1 (1 μM)
T1 construct: host or cells: U-937 human lymphoma cells
T1 sequence (P23219 24-599): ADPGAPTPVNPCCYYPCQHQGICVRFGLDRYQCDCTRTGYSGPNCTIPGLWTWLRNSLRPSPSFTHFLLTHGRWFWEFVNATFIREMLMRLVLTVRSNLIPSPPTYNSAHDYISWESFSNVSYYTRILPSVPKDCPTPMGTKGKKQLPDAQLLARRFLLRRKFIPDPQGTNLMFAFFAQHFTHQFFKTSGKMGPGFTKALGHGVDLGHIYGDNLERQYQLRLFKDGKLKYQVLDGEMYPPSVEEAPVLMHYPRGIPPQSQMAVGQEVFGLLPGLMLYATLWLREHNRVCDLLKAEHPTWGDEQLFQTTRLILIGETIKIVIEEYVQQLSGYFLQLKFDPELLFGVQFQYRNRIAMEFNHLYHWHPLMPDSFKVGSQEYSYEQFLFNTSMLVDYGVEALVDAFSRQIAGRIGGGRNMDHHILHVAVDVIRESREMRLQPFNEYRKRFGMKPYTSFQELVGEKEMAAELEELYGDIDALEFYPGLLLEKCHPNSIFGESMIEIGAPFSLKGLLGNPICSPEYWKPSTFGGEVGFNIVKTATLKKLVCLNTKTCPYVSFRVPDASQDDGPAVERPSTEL
Method: The collected cells were diluted with HBSS (×1, Hank's balanced salt solution) to a concentration of 1×10^6 cells/ml. 1 ml of the dilute cell solution was placed into each well of 12-well plates. 5 μl of 1 μM solution of a test compound in DMSO and 5 μl of DMSO as a control were added to the wells. The wells were incubated in CO2 incubator at 37° C. for 15 minutes. Separately, 10 mM stock solution of arachidonic acid in ethanol was diluted ten times in ethanol to prepare 1 mM solution of arachidonic acid. Arachidonic acid acts as a substrate. 10 μl of the 1 mM solution of arachidonic acid was added to each well and incubated at CO2 incubator at 37° C. for 30 minutes. The cell solution of each well was placed in a centrifuge test tube and centrifuged at 10,000 rpm at 4° C. for 5 minutes. The concentration of PGE2 in the collected cells and the supernatant was quantified by means of a monoclonal kit (Cayman Chemicals). The percentages of PGE2 inhibition in a group of the test compound-treated cells in relation to a group of the DMSO-treated cells were calculated. Based on the calculated values, the COX-1 inhibitory activities were evaluated.
(§1) The percentages of the COX inhibition were calculated according to the following equation: % Inhibition=(concentration of PGE2 in test compound-untreated sample−concentration of PGE2 in test compound-treated sample)/(concentration of PGE2 in test compound-untreated sample)×100

COX-2 = target: T2, COX-2 (Mus musculus, UniProt Q05769); test: Assay for the COX-2 inhibitory activity using RAW 264.7 cell line (PGE2 inhibition); format: cell-based; conditions: RAW264.7, 10 nM test compound, RAW 264.7 cells, interferon γ and LPS, 18 hours, read-out: Cyclooxygenase (COX) Inhibition (%) COX-2 (10 nM)
T2 construct: host or cells: RAW 264.7 cells, aspirin-pretreated, then induced with interferon gamma and LPS
T2 sequence (Q05769 18-604): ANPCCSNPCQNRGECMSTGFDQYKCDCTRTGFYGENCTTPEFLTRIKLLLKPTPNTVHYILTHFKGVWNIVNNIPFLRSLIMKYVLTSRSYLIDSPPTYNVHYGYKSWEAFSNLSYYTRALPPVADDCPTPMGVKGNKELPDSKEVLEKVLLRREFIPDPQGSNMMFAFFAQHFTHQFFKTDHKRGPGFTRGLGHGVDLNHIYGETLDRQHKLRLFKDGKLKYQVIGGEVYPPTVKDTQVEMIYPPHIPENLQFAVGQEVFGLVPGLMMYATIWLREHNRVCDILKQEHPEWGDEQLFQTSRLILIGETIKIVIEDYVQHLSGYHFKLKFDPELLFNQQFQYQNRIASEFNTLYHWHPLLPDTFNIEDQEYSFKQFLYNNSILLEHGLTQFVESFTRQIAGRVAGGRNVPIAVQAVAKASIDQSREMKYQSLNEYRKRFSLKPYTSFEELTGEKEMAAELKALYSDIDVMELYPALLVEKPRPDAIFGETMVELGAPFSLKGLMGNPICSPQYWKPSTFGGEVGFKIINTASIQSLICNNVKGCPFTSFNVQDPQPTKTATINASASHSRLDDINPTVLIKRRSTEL
Method: Each well was treated with 250 μM of aspirin and incubated at 37° C. for 2 hours. After the culture media were replaced with new culture media, the new culture media were treated with a test compound (10 nM) and incubated for 30 minutes. Then, each well was treated with interferon γ (100 units/ml) and lipopolysaccharide (LPS, 100 ng/ml) and incubated for 18 hours. The culture media were transferred to other test tubes. The concentration of PGE2 was quantified by means of the EIA kit (Cayman Chemicals).
as §1

inhibition at 1 µM (COX-1) [%] | inhibition at 0.01 µM (COX-2) [%] | SMILES
35.5 | 11.2 | COc1ccc(-c2nc(O)nn2-c2ccc(S(N)(=O)=O)cc2)cc1 [Example 16, 4-[3-hydroxy-5-(4-methoxyphenyl)-1,2,4-triazole-1-yl]-benzenesulfonamide]
48.8 | 10.5 | CCOc1ccc(-c2nc(O)nn2-c2ccc(S(N)(=O)=O)cc2)cc1 [Example 17, 4-[3-hydroxy-5-(4-ethoxyphenyl)-1,2,4-triazole-1-yl]-benzenesulfonamide]
19.5 | 6.7 | NS(=O)(=O)c1ccc(-n2nc(O)nc2-c2ccc(F)cc2)cc1 [Example 18, 4-[3-hydroxy-5-(4-fluorophenyl)-1,2,4-triazole-1-yl]-benzenesulfonamide]
37.4 | 12.3 | NS(=O)(=O)c1ccc(-n2nc(O)nc2-c2ccc(Br)cc2)cc1 [Example 19, 4-[3-hydroxy-5-(4-bromophenyl)-1,2,4-triazole-1-yl]-benzenesulfonamide]
26.4 | 11 | COc1ccc(-c2nc(O)nn2-c2ccc(S(N)(=O)=O)cc2)cc1F [Example 20, 4-[3-hydroxy-5-(3-fluoro-4-methoxyphenyl)-1,2,4-triazole-1-yl]-benzenesulfonamide]
25.7 | 12.6 | NS(=O)(=O)c1ccc(-n2nc(S)nc2-c2ccccc2)cc1 [Example 21, 4-(3-mercapto-5-phenyl-1,2,4-triazole-1-yl)-benzenesulfonamide]
11.1 | 36.4 | CS(=O)(=O)c1ccc(-n2nc(O)nc2-c2ccccc2)cc1 [Example 22, 1-(4-methanesulfonylphenyl)-5-phenyl-1H-1,2,4-triazole-3-ol]
13.2 | 35.1 | COc1ccc(-c2nc(O)nn2-c2ccc(S(C)(=O)=O)cc2)cc1 [Example 23, 1-(4-methanesulfonylphenyl)-5-(4-methoxyphenyl)-1H-1,2,4-triazole-3-ol]
16.4 | 31.2 | COc1ccc(-c2nc(OC)nn2-c2ccc(S(N)(=O)=O)cc2)cc1 [Example 24, 4-[3-methoxy-5-(4-methoxyphenyl)-1,2,4-triazole-1-yl]-benzenesulfonamide]
23.2 | 27.8 | COc1nc(-c2ccccc2)n(-c2ccc(S(N)(=O)=O)cc2)n1 [Example 25, 4-(3-methoxy-5-phenyl-1,2,4-triazole-1-yl)-benzenesulfonamide]
44.5 | 13.5 | COc1nc(-c2ccc(F)cc2)n(-c2ccc(S(N)(=O)=O)cc2)n1 [Example 26, 4-[3-methoxy-5-(4-fluorophenyl)-1,2,4-triazole-1-yl]-benzenesulfonamide]
11.2 | 11.5 | COc1nc(-c2ccc(Br)cc2)n(-c2ccc(S(N)(=O)=O)cc2)n1 [Example 27, 4-[3-methoxy-5-(4-bromophenyl)-1,2,4-triazole-1-yl]-benzenesulfonamide]
21.2 | 10.5 | COc1nc(-c2ccc(OC)c(F)c2)n(-c2ccc(S(N)(=O)=O)cc2)n1 [Example 28, 4-[3-methoxy-5-(3-fluoro-4-methoxyphenyl)-1,2,4-triazole-1-yl]-benzenesulfonamide]
17.7 | 11.1 | CSc1nc(-c2ccccc2)n(-c2ccc(S(N)(=O)=O)cc2)n1 [Example 29, 4-(3-methylthio-5-phenyl-1,2,4-triazole-1-yl)-benzenesulfonamide]
16.4 | 13.2 | CCOc1nc(-c2ccc(OC)cc2)n(-c2ccc(S(N)(=O)=O)cc2)n1 [Example 30, 4-[3-ethoxy-5-(4-methoxyphenyl)-1,2,4-triazole-1-yl]-benzenesulfonamide]
15.5 | 16.4 | CCOc1nc(-c2ccccc2)n(-c2ccc(S(N)(=O)=O)cc2)n1 [Example 31, 4-(3-ethoxy-5-phenyl-1,2,4-triazole-1-yl)-benzenesulfonamide]
21.4 | 11.5 | CCOc1nc(-c2ccc(F)cc2)n(-c2ccc(S(N)(=O)=O)cc2)n1 [Example 32, 4-[3-ethoxy-5-(4-fluorophenyl)-1,2,4-triazole-1-yl]-benzenesulfonamide]
23.7 | 10.5 | CCOc1nc(-c2ccc(OC)c(F)c2)n(-c2ccc(S(N)(=O)=O)cc2)n1 [Example 33, 4-[3-ethoxy-5-(3-fluoro-4-methoxyphenyl)-1,2,4-triazole-1-yl]-benzenesulfonamide]
31.2 | 9.5 | CCSc1nc(-c2ccccc2)n(-c2ccc(S(N)(=O)=O)cc2)n1 [Example 34, 4-(3-ethylthio-5-phenyl-1,2,4-triazole-1-yl)-benzenesulfonamide]
23.4 | 16.1 | CCCOc1nc(-c2ccc(OC)cc2)n(-c2ccc(S(N)(=O)=O)cc2)n1 [Example 35, 4-[3-propoxy-5-(4-methoxyphenyl)-1,2,4-triazole-1-yl]-benzenesulfonamide]
27 | 17.2 | CCCOc1nc(-c2ccc(F)cc2)n(-c2ccc(S(N)(=O)=O)cc2)n1 [Example 36, 4-[3-propoxy-5-(4-fluorophenyl)-1,2,4-triazole-1-yl]-benzenesulfonamide]
12 | 22.3 | COc1ccc(-c2nc(OC3CCCC3)nn2-c2ccc(S(N)(=O)=O)cc2)cc1 [Example 37, 4-[3-cyclopentyloxy-5-(4-methoxyphenyl)-1,2,4-triazole-1-yl]-benzenesulfonamide]
17.4 | 33.1 | NS(=O)(=O)c1ccc(-n2nc(OC3CCCC3)nc2-c2ccc(F)cc2)cc1 [Example 38, 4-[3-cyclopentyloxy-5-(4-fluorophenyl)-1,2,4-triazole-1-yl]-benzenesulfonamide]
15.5 | 20.7 | COc1ccc(-c2nc(OC3CCCCC3)nn2-c2ccc(S(N)(=O)=O)cc2)cc1 [Example 39, 4-[3-cyclohexyloxy-5-(4-methoxyphenyl)-1,2,4-triazole-1-yl]-benzenesulfonamide]
16.2 | 16.2 | NS(=O)(=O)c1ccc(-n2nc(OC3CCCCC3)nc2-c2ccc(F)cc2)cc1 [Example 40, 4-[3-cyclohexyloxy-5-(4-fluorophenyl)-1,2,4-triazole-1-yl]-benzenesulfonamide]
27.7 | 15.5 | COc1ccc(-c2nc(OCC#N)nn2-c2ccc(S(N)(=O)=O)cc2)cc1 [Example 41, 4-[3-cyanomethoxy-5-(4-methoxyphenyl)-1,2,4-triazole-1-yl]-benzenesulfonamide]
26.6 | 13.3 | N#CCOc1nc(-c2ccc(F)cc2)n(-c2ccc(S(N)(=O)=O)cc2)n1 [Example 42, 4-[3-cyanomethoxy-5-(4-fluorophenyl)-1,2,4-triazole-1-yl]-benzenesulfonamide]
30.4 | 16.7 | C#CCOc1nc(-c2ccc(OC)cc2)n(-c2ccc(S(N)(=O)=O)cc2)n1 [Example 43, 4-[3-prop-2-ynyloxy-5-(4-methoxyphenyl)-1,2,4-triazole-1-yl]-benzenesulfonamide]
27.2 | 14.5 | C#CCOc1nc(-c2ccc(F)cc2)n(-c2ccc(S(N)(=O)=O)cc2)n1 [Example 44, 4-[3-prop-2-ynyloxy-5-(4-fluorophenyl)-1,2,4-triazole-1-yl]-benzenesulfonamide]
